Source: BindingDB's records for doi:10.1016/j.chembiol.2014.09.011 (Astrazeneca R&D, 2014)

Molecular target: T1, AMP deaminase 1 (Rattus norvegicus, UniProt P10759)
T1 sequence (P10759 whole entry): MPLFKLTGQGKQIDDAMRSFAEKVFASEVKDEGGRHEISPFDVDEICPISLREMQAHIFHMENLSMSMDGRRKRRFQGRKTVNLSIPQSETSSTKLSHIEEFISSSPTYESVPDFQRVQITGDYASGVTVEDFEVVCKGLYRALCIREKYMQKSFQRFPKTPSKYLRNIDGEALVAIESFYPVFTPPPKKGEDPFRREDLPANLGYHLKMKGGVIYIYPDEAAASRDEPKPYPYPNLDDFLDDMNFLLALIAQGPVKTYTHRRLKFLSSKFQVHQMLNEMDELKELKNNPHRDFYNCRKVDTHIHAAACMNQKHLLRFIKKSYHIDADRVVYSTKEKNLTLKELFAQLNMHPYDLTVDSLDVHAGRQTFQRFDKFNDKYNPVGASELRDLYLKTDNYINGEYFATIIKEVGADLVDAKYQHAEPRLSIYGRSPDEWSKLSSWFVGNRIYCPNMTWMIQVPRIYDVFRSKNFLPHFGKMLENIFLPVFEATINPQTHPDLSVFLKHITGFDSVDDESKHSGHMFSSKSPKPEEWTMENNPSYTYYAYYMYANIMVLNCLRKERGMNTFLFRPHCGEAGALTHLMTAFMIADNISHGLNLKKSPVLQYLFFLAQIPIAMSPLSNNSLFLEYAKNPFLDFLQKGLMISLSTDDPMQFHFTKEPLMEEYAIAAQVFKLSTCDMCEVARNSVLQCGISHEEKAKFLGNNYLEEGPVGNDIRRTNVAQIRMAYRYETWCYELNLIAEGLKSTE
Assay: AMPD Enzymatic Activity Assay
Details: pH 7.4

IC50 [nM] | Compound
5800 | C[C@@H](NCc1ccc(-c2ccc(C(=O)O)cn2)cc1)c1cccc2ccncc12 [6-[4-({[(1R)-1-(isoquinolin-8-yl)ethyl]amino}methyl)phenyl]pyridine-3-carboxylic acid (Compound 2)]
27 | C[C@H](NCc1ccc(-c2ccc(C(=O)O)cn2)cc1)c1cccc2ccncc12 [6-[4-({[(1S)-1-(isoquinolin-8-yl)ethyl]amino}methyl)phenyl]pyridine-3-carboxylic acid (Compound 3)]
